# Data from patent publication US20260273011A1, “COMPOSITION COMPRISING STEWARTIA PSEUDOCAMELLIA EXTRACT AS ACTIVE INGREDIENT FOR PREVENTION OR TREATMENT OF DEMENTIA” (priority 2022, published 2026).
# Where two headings read alike, the source gives them in different places. Ends that are not written are not given here.
# Legend:
# [1] = test system: human neuroblastoma SH-SY5Y cells; conditions: H2O2 50 μM, 24 hours
# Method: First, the cells were plated into a 96-well plate at a concentration of 5×10^3 cells/well, and then cultured for 24 hours at 95% humidity, 5% CO2, and 37° C. for stabilization. After removing the medium, 10 μl of H2O2 diluted with fresh medium was treated at each concentration, and the resulting mixture was allowed to react for 24 hours at 95% humidity, 5% CO2, and 37° C.
# The viability of the cells was measured using the MTS (CellTiter 96® AQueous One Solution Cell Proliferation Assay, Promega, USA) reagent. In other words, 10 μl of the reagent was treated per well, and after a reaction at 37° C. for 60 minutes, the absorbance was measured at 490 nm using a microplate reader (Molecular Devices LLC, VersaMax ELISA Microplate Reader, USA).
# [2] = test system: human neuroblastoma SH-SY5Y cells; experiment: Human neuroblastoma SH-SY5Y cell toxicity (MTS); assay type: cell-based
# Method: Neuronal cells (human neuroblastoma SH-SY5Y) were obtained from the Korean Cell Line Bank (KCLB, Seoul, Korea). The medium used was a minimum essential medium (SH30024.01, Cytiva, USA) containing 10% fetal bovine serum (FBS, Gibco, CA, USA) medium, 25 mM 4-(2-hydroxyethyl)-1-piperazine ethanesulfonic acid (HEPES), and 25 mM NaHCO3. The cells were cultured in an incubator controlled at 95% humidity, 5% CO2, and 37° C., and an antibiotic for the medium (penicillin-streptomycin, Gibco, CA, USA) was used to suppress microbial contamination or proliferation. When the cells covered about 80% of the dish, the dish was washed with phosphate-buffered saline-ethylenediaminetetraacetic acid (PBS-EDTA, Thermo Fisher Scientific, Massachusetts, USA), and then 1 ml of 0.05% trypsin-EDTA (Gibco, Thermo Fisher Scientific, Massachusetts, USA) was used to detach the cells attached to the bottom of the dish and subculture them. The medium was exchanged with fresh medium every 48 to 72 hours to culture the cells.
# After removing the medium, 100 μl of the sample diluted with fresh medium was applied and allowed to react with the cells for 24 hours in an incubator at 95% humidity, 5% CO2, and 37° C.
# In other words, 1 ml of the reagent was diluted with 9 ml of medium (DMEM high glucose, free FBS), and 100 μl of the mixture was added to each well.
# [3] = test system: SH-SY5Y cells; experiment: ROS generation suppression ability in neurons (DCF-DA, H2O2); assay type: cell-based, human; conditions: ursolic acid 0.1 to 5 μg/ml
# Method: The generation of ROS is measured by the intensity of fluorescent material generation using 2′,7′-dichlorofluorescin diacetate (DCF-DA), and the principle is that 2′,7′-dichlorofluorescin (DCF) in a reduced or acetylated form releases a fluorescent material ([…]) when the acetate group is removed by the […] and ROS generated within cells.
# SH-SY5Y cells were plated into a 96-well plate (100 μl) at a concentration of 5×10^4 cells/well and cultured for 24 hours. After the culture, the medium was removed, and the sample was treated at an appropriate concentration using a medium containing no serum and then cultured for 24 hours. After 24 hours, 100 μl of PBS was added and the resulting mixture was washed, and this process was repeated three times. DCF-DA dissolved in dimethyl sulfoxide (DMSO) was diluted to 20 μM (in PBS), and 100 μl of the diluted solution was added and incubated for 20 minutes. After adding 100 μl of 100 μM H2O2 (in PBS), the mixture was allowed to react for 30 minutes, and the fluorescence intensity was measured at 486 nm and 535 nm using an enzyme-linked immunosorbent assay (ELISA) reader.
# [4] = test system: human neuroblastoma SH-SY5Y cells; experiment: Neuroprotective effect against H2O2 cytotoxicity (MTS); assay type: cell-based; conditions: 50 μM H2O2 treatment
# Method: After removing the medium, […], which has a cell viability of about 50%, was treated with fresh medium, and then 10 μl of the samples of Examples 1 to 4 and Comparative Example 1 were treated at each concentration, and the resulting mixtures were allowed to react at 95% humidity, 5% CO2, and 37° C. for 24 hours.
# [5] = test system: human neuroblastoma SH-SY5Y cells; experiment: Neuroprotective effect against Aβ-peptide 25-35 cytotoxicity (MTS); assay type: cell-based; design: dose or concentration left out as unconfirmed; conditions: Aβ treatment
# Method: (§1) To measure the neuronal cell death concentration by Aβ 25-35, Aβ-protein fragment 25-35 (Sigma-Aldrich, A4559-1 MG) was purchased and used.
# (§2) For the aggregation of Aβ, it was dissolved in distilled water and allowed to react at 37° C. for five days at 150 rpm.
# [6] = test system: human neuroblastoma SH-SY5Y cells; experiment: Cell death concentration for Aβ-peptide 25-35 (MTS); assay type: cell-based; conditions: Aβ 20 μM, 24 hours
# Method: as §1, §2
compound,measurement,setting,value
"OO [Example H2O2, Hydrogen peroxide]",cell viability,[1],approximately 50%
C[C@H]1[C@H](C)CC[C@]2(C(=O)O)CC[C@]3(C)C(=CC[C@@H]4[C@@]5(C)CC[C@H](O)C(C)(C)[C@@H]5CC[C@]43C)[C@H]12 [ursolic acid],concentration at which toxicity on neurons was exhibited,[2],≥ 10000 ng/mL
same,ROS generation suppression ability,[3],significant suppression activity
same,neuroprotective effect against H2O2 cytotoxicity,[4],high cell protection efficacy
same,neuroprotective effect against Aβ-peptide 25-35 cytotoxicity,[5],significant effect
"GSNKGAIIGLM [Aβ, Aβ-protein fragment 25-35]",cell viability,[6],approximately 50%
